Data from ChEMBL document CHEMBL1131100, “2-Iminopyrrolidines as potent and selective inhibitors of human inducible nitric oxide synthase” (J Med Chem, 1998).

Columns and labels:
Nitric oxide synthase 3 = biological target: T1, Nitric oxide synthase 3 (Homo sapiens, UniProt P29474); experiment: Inhibition of cloned (from RNA) human endothelial constitutive Endothelial nitric oxide synthase (heNOS)
T1 sequence (P29474 whole entry): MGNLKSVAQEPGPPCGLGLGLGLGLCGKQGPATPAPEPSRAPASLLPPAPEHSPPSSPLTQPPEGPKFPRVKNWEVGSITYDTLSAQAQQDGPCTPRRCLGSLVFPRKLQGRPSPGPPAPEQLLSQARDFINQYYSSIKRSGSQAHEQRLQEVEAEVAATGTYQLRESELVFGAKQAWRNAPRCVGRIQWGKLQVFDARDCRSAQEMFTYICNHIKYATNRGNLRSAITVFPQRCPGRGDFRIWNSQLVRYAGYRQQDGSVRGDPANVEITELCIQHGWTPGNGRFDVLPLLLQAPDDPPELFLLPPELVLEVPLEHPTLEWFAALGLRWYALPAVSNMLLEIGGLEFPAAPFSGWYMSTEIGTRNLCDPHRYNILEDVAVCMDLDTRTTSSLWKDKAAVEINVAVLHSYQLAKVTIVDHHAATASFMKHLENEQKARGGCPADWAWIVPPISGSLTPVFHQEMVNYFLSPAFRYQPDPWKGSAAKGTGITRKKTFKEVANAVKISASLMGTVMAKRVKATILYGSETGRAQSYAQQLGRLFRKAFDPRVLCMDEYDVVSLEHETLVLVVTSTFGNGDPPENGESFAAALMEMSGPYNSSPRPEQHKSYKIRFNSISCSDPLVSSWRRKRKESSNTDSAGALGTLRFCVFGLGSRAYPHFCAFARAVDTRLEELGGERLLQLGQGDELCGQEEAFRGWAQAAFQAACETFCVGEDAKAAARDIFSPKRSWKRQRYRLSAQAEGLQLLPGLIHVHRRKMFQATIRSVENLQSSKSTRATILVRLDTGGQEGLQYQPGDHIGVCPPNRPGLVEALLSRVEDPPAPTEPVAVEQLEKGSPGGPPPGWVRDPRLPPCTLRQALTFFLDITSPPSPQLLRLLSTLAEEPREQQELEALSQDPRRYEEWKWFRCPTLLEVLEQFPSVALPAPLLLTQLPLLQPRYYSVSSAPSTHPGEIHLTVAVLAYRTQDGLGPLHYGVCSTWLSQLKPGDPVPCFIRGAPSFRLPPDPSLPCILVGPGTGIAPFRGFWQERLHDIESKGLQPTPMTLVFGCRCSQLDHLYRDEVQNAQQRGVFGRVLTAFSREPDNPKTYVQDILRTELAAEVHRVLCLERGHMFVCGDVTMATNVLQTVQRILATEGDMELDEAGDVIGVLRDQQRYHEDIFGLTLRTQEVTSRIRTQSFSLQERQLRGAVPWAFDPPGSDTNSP

Nitric oxide synthase 1 [1] = biological target: T2, Nitric oxide synthase 1 (Homo sapiens, UniProt P29475); experiment: Inhibition of cloned (from RNA) human Neuronal nitric oxide synthase
T2 sequence (P29475 whole entry): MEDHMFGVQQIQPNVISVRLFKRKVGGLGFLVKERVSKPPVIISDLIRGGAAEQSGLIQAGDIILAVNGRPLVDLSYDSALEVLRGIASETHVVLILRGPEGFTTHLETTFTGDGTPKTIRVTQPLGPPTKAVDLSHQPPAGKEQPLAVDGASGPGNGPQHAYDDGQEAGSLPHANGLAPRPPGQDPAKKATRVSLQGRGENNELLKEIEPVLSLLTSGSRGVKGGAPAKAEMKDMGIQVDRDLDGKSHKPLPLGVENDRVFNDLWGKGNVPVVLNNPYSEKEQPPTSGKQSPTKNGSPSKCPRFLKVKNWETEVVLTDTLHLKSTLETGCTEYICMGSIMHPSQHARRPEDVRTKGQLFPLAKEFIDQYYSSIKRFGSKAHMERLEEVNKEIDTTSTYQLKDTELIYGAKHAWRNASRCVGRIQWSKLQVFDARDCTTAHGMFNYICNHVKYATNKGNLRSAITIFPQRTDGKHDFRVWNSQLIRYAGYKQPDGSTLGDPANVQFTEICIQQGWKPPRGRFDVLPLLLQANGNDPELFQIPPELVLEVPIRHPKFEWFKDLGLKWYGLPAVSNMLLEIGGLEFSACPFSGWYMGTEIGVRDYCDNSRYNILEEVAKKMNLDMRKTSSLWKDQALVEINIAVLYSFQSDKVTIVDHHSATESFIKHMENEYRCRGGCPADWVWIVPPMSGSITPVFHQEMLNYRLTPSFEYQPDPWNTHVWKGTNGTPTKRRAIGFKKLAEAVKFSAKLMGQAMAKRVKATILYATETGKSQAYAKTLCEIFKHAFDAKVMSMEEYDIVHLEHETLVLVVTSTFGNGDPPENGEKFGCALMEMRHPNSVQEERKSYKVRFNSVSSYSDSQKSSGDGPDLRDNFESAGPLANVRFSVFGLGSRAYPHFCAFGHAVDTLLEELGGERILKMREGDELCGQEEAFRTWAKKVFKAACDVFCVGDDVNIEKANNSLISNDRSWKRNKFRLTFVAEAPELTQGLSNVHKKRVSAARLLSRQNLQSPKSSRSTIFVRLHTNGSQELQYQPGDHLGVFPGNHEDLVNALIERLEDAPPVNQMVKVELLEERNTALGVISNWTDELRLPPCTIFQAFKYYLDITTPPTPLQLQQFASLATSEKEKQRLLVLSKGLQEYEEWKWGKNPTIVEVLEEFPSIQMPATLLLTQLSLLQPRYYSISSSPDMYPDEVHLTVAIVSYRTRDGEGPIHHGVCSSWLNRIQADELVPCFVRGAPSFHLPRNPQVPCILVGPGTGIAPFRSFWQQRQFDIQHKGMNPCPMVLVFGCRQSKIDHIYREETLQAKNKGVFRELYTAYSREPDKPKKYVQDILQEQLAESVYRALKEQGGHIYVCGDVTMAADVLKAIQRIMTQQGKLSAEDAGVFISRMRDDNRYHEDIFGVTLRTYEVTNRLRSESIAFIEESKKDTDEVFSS

[2] = biological target: T3, Nitric oxide synthase, inducible (Homo sapiens, UniProt P35228); experiment: Inhibition of cloned (from RNA) human inducible nitric oxide synthase (hiNOS)
T3 sequence (P35228 whole entry): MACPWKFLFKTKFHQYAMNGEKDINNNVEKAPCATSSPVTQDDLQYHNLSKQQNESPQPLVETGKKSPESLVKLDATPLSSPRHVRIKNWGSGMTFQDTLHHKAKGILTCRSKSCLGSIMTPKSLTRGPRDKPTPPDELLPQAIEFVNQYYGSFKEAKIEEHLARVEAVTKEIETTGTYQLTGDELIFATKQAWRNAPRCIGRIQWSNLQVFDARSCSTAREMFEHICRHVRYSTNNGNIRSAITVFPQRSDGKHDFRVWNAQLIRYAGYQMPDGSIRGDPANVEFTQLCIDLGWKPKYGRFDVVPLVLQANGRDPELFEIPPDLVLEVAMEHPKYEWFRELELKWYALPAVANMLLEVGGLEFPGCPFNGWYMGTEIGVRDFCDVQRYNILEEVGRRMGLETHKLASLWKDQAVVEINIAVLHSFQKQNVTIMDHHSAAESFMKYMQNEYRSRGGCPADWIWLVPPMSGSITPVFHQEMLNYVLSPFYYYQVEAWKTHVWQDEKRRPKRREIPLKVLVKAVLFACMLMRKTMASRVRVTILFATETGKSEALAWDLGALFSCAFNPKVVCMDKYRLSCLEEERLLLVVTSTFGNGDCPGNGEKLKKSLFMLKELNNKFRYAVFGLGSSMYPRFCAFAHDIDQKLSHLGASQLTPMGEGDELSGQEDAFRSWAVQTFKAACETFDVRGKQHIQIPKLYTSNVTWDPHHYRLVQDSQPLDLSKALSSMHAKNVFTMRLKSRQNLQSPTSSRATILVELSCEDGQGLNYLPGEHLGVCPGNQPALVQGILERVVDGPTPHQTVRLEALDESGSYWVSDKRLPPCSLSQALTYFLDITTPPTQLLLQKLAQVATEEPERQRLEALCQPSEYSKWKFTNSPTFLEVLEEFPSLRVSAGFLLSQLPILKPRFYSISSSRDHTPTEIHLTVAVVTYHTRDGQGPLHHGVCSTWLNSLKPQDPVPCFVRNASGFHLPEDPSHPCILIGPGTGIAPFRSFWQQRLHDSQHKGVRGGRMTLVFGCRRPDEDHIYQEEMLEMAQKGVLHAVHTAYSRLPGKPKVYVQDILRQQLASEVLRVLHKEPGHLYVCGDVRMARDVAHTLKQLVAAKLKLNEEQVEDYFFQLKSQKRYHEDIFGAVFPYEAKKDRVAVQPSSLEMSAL

[3] = biological target: T4, Nitric oxide synthase 3 (Homo sapiens) (UniProt P29474); experiment: Inhibition of cloned (from RNA) human endothelial constitutive Endothelial nitric oxide synthase (heNOS) at 100 uM
T4 sequence (whole entry): T1 sequence (P29474 whole entry)

Nitric oxide synthase 1 [4] = biological target: T2, Nitric oxide synthase 1; experiment: Inhibition of cloned (from RNA) human Neuronal nitric oxide synthase at 100 uM
[5] = biological target: T3, Nitric oxide synthase, inducible; experiment: Inhibition of cloned (from RNA) human inducible nitric oxide synthase (hiNOS)at 100 uM
[6] = biological target: T3, Nitric oxide synthase, inducible; experiment: Inhibition of cloned (from RNA) human inducible nitric oxide synthase (hiNOS) at 100 uM
[7] = biological target: T4, Nitric oxide synthase 3 (Homo sapiens); experiment: Inhibition of cloned (from RNA) human endothelial constitutive Endothelial nitric oxide synthase (heNOS)at 100 uM

Compound	IC50 (Nitric oxide synthase 3)	IC50 (Nitric oxide synthase 1 [1])	IC50 [2]	inhibition [3]	inhibition (Nitric oxide synthase 1 [4])	inhibition [5]	inhibition [6]	inhibition [7]
CCCCCC1N=C(N)CC1C(F)(F)F (stereo in doubt; 14)	392 µM	5.44 µM	0.81 µM					
CC1CN=C(N)C1 (stereo unspecified)	14.2 µM	4.7 µM	1.4 µM					
CCCCCC1N=C(N)CC1C (stereo in doubt; 9)	47.5 µM	1.31 µM	0.91 µM					
CCCCCC1N=C(N)CC1C(F)(F)F (stereo in doubt; 23)	1680 µM	45.7 µM	7.5 µM					
CCCCCC1N=C(N)CC1C (stereo in doubt; 10)	243 µM	5.37 µM	0.36 µM					
CCCCCC1N=C(N)CC1C(F)(F)F (stereo in doubt; 22)	212 µM	2.53 µM	0.23 µM					
CC1CCC(N)=N1 (stereo unspecified)	24.9 µM	9.8 µM	10.2 µM					
CC1CCN=C1N (stereo unspecified)	9.1 µM	3 µM	11.3 µM					
CCCCCC1N=C(N)CC1C (stereo in doubt; 21)	578 µM	20.6 µM	4.5 µM					
CCC1CN=C(N)C1 (stereo unspecified)	29.8 µM	5.46 µM	3.4 µM					
CCCCCC1N=C(N)CC1C (stereo in doubt; 20)	226 µM	3.2 µM	0.25 µM					
CCCC1N=C(N)CC1C (stereo unspecified)	3.5 µM	0.39 µM	0.3 µM					
CCCCCC1N=C(N)CC1C(F)(F)F (stereo in doubt; 13)	336 µM	9.05 µM	10 µM					
CCCCC1N=C(N)CC1C (stereo unspecified)	23.6 µM	0.85 µM	0.66 µM					

The remaining lines, values ahead:

IC50 (Nitric oxide synthase 3)	IC50 (Nitric oxide synthase 1 [1])	IC50 [2]	inhibition [3]	inhibition (Nitric oxide synthase 1 [4])	inhibition [5]	inhibition [6]	inhibition [7]	Compound
2920 µM	38.3 µM	74 µM						NC1=NC(Cc2ccccc2)C(C(F)(F)F)C1 (stereo in doubt; 18)
1010 µM	12.1 µM	22 µM						NC1=NC(Cc2ccccc2)C(C(F)(F)F)C1 (stereo in doubt; 17)
639 µM	11.2 µM	14 µM						CC1CC(N)=NC1Cc1ccccc1 (stereo in doubt; 16)
1.6 µM	0.17 µM	0.17 µM						CCC1N=C(N)CC1C (stereo unspecified)
			17%	46%	64%			CCCCCC1N=C(N)CC1(C)C (stereo unspecified)
			16%	47%		26%		NC1=NC(Cc2ccccc2)CC1 (stereo unspecified)
				17%		12%	3%	CC1(C)CC(N)=NC1Cc1ccccc1 (stereo unspecified)
458 µM	8.29 µM	3 µM						CC1CC(N)=NC1Cc1ccccc1 (stereo in doubt; 11)
